Measurements published in paper PMC4535766, “Antiprotozoal Activity Profiling of Approved Drugs: A Starting Point toward Drug Repositioning” (PLoS ONE, 2015).
Counter-ions that a name gives are not always drawn. Like-named read-outs stand apart in the source and are kept apart here.

Key:
[1] = system: T. b. rhodesiense strain STIB 900, trypomastigotes; assay: In vitro activity against T. b. rhodesiense, serial drug dilution assay; settings: for IC50: Trypanosoma brucei; for Activity against T. b. rhodesiense (in words): in vitro
Procedure: (§1) Drug stock solutions (10mg/ml) were in DMSO (100%). […] Selectivity index (SI) was calculated as IC50 L6 cells/IC50 parasite.

in vitro = settings: rat
Procedure: as §1

[2] = system: T. cruzi, strain Tulahuen C4, intracellular amastigotes; assay: microbe, parasite or virus in culture; settings: for IC50: Trypanosoma cruzi, TULAHUEN; for selectivity ratio: rat, Selectivity index: IC50 Cytotoxicity L6/ IC50 T. cruzi
Procedure: as §1

P. falciparum strain K1 = assay: In vitro activity against P. falciparum, serial drug dilution assay; settings: for IC50: Plasmodium falciparum; for selectivity ratio: rat, Selectivity index: IC50 Cytotoxicity L6/ IC50 P. falciparum; for Activity against P. falciparum (in words): in vitro
Procedure: as §1

[3] = system: axenic amastigotes of L. donovani, strain MHOM-ET-67/L82; assay: In vitro activity against L. donovani axenic amastigotes, serial drug dilution assay; assay type: cell-based, Leishmania donovani
Procedure: as §1

[4] = Cytotoxicity on macrophages infected with L. donovani; assay type: cell-based, mouse; settings: mouse
Procedure: After 24 h 1.2 x 10^5 amastigote L. donovani in 100 μl were added. The amastigotes were taken from an axenic culture grown at pH 5.4. Four hours later, the medium containing free amastigote forms was removed and replaced by fresh medium. The next day the medium was replaced by medium with or without a serial drug dilution of seven 3-fold dilution steps covering a range from 30 to 0.04 μg/ml. Parasite growth in the presence of the drug was compared to control wells. After 96 h of incubation, the medium was removed and the slides fixed with methanol for 10 min followed by staining with a 10% Giemsa solution. Infected and non-infected macrophages were counted for the control cultures and those exposed to the serial drug dilutions. The infection rates were determined. The results were expressed as a percentage reduction in parasite burden compared to control wells, and the IC50 was calculated by linear regression analysis.

[5] = system: intracellular amastigotes of L. donovani strain MHOM-ET-67/L82; assay: Activity against Leishmania donovani intracellular amastigotes in mouse peritoneal macrophages; settings: for IC50: Leishmania donovani, Peritoneal macrophage, in Mus musculus
In short: (§2)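 Axenic amastigotes grown at pH 5.4 infected mouse peritoneal macrophages for 4 h before free parasites were washed off. Next day, seven 3-fold drug dilutions (30–0.04 μg/ml) were added for 96 h. Giemsa-stained infected macrophages were counted, burden reduction was taken vs untreated controls, and IC50 came from linear regression.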

[6] = system: L. donovani strain MHOM-ET-67/L82 amastigotes; assay: in vitro; settings: mouse, Selectivity index: IC50 Cytotoxicity macrophages/ IC50 L. donovani
In short: as §2

[7] = In vitro cytotoxicity with mouse peritoneal macrophages (Alamar Blue); assay type: cell-based
Procedure: After 96 h of incubation, the plates were inspected under an inverted microscope to assure sterility. […] The IC50 values were calculated by linear regression from the sigmoidal dose inhibition curves using SoftmaxPro software (Molecular Devices Cooperation, Sunnyvale, CA, USA).

[8] = axenic amastigotes, strain MHOM-ET-67/L82, means of two independent assays, read-out: IC50 L. don. axen.
[9] = macrophages infected with L. donovani, read-out: IC50 Cytotox. mac.inf.
[10] = 96 h, read-out: IC50 L. don. intracell
[11] = Leishmania donovani, axenic amastigotes, strain MHOM-ET-67/L82, means of two independent assays, read-out: IC50 L. don. axen.
[12] = infected macrophages, read-out: Cytotox. mac.inf. IC50
[13] = mouse peritoneal macrophages versus L. donovani amastigotes, axenic or intracellular IC50 not specified

Row | SMILES | IC50 ([1]; read-out: IC50 T. b. rhod.) [µM] | IC50 (in vitro; IC50 Cytotox. L6) [µM] | IC50 ([2]; read-out: IC50 T. cruzi) [µM] | IC50 (P. falciparum strain K1; K1, read-out: IC50 P. falc. K1) [µM] | IC50 [3, 8] [µM] | IC50 at 96 h [4, 9] [µM] | IC50 [5, 10] [µM] | selectivity ratio at 96 h [6] | IC50 at 96 h ([7]; mouse) [µM] | IC50 [3, 11] [µM] | IC50 ([2]; read-out: T. cruzi IC50) [µM] | other results
1 | C[C@H]1[C@H](OC(=O)CCC(=O)O)O[C@@H]2O[C@@]3(C)CC[C@H]4[C@H](C)CC[C@@H]1[C@@]24OO3 [Artesunate] | 16.8 | 0.78 | 8.97 | 0.003 | 0.35 | > 7.8 | > 7.8 | > 22 | – | – | – | selectivity ratio (P. falciparum strain K1): 260; IC50 ([3]; axenic amastigotes, strain MHOM-ET-67/L82, means of two independent assays, listed as artesunate, read-out: IC50 L. don. axen.): < 3 µM
2 | Clc1ccccc1C(c1ccccc1)(c1ccccc1)n1ccnc1 [Clotrimazole] | – | 2.99 | – | – | – | – | – | – | 32.5 | – | – | Activity against P. falciparum (in words) (P. falciparum strain K1): active; Activity against L. donovani intracellular amastigotes (in words) [5]: active with low selectivity
3 | Clc1ccc(COC(Cn2ccnc2)c2ccc(Cl)cc2Cl)cc1 (centres unmarked) [Econazole (Nitrate salt), Econazole] | – | 15.6 | – | – | – | – | – | – | 22.8 | – | – | Activity against P. falciparum (in words) (P. falciparum strain K1): active
4 | Clc1ccc(COC(Cn2ccnc2)c2ccc(Cl)cc2Cl)c(Cl)c1 (centres unmarked) [Miconazole (Nitrate salt), Miconazole] | – | 15.4 | – | – | – | – | – | – | 23.9 | – | – | Activity against P. falciparum (in words) (P. falciparum strain K1): active
5 | O=C(N/N=C/c1ccc([N+](=O)[O-])o1)c1ccc(O)cc1 [Nifuroxazide] | 0.03 | 12.3 | 0.23 | 7.82 | 2.83 | 36.2 | > 10.9 | 13 | – | < 3 | – | selectivity ratio ([1]; rat): 410; selectivity ratio [2]: 54
6 | O=C1CN(/N=C/c2ccc([N+](=O)[O-])o2)C(=O)N1 [Nitrofurantoine] | 0.5 | 90.3 | 4.35 | – | 2.12 | 125 | > 41.8 | 59 | – | < 3 | – | Selectivity index: IC50 Cytotoxicity L6/ IC50 T. b. rhodesiense ([1]; rat): 181; selectivity ratio ([1]; rat, Selectivity index: IC50 Cytotoxicity L6/ IC50 T. b. rhodesiense): 180; selectivity ratio [2]: 21
7 | N=C(N)c1ccc(OCCCCCOc2ccc(C(=N)N)cc2)cc1 [Pentamidine] | 0.01 | 8.87 | 4.44 | – | – | > 29.4 | 2.63 | – | 7.78 | 19.8 | – | Activity against T. b. rhodesiense (in words) [1]: active; selectivity ratio ([1]; rat): 887
8 | COc1cc(NC(C)CCCN)c2ncccc2c1 (centres unmarked) [Primaquine] | – | – | – | – | – | – | – | – | – | – | 17.9 | IC50 ([1]; read-out: T. b. rhod. IC50): 4.78 µM; IC50 (in vitro): 43.2 µM; IC50 ([3]; Leishmania donovani, L. donovani axenic amastigotes, read-out: L. don. axen. IC50): 48.6 µM; IC50 at 96 h [4, 12]: > 38.6 µM; IC50 ([5]; read-out: L. don. intracell IC50): 28.2 µM; IC50 at 96 h ([7]; peritoneal mouse macrophages, read-out: Cytotox. PMM IC50): 39.7 µM
9 | CO[C@H]1/C=C/O[C@@]2(C)Oc3c(C)c(O)c4c(O)c(c(/C=N/N5CCN(C)CC5)c(O)c4c3C2=O)NC(=O)/C(C)=C\C=C\[C@H](C)[C@H](O)[C@@H](C)[C@@H](O)[C@@H](C)[C@H](OC(C)=O)[C@@H]1C [Rifampicin] | – | 75.2 | – | 0.1 | 1.53 | > 36.5 | > 36.5 | > 24 | – | < 3 | > 109 | IC50 ([1]; read-out: T. b. rhod. IC50): 16.7 µM; Activity against T. b. rhodesiense (in words) [1]: devoid of antitrypanosomal activity; IC50 at 96 h [4, 12]: > 36.5 µM
10 | CO[C@H]1/C=C/O[C@@]2(C)Oc3c(C)c(O)c4c(O)c(cc(O)c4c3C2=O)NC(=O)/C(C)=C\C=C\[C@H](C)[C@H](O)[C@@H](C)[C@@H](O)[C@@H](C)[C@H](OC(C)=O)[C@@H]1C [Rifamycin SV (Sodium salt), Rifamycin SV] | 0.99 | 15.7 | – | 0.55 | 1.5 | 41.6 | > 13.9 | – | – | < 3 | 50 | selectivity ratio ([1]; rat, L6 cells versus T. b. rhodesiense STIB 900 trypomastigotes): 16; selectivity ratio (P. falciparum strain K1): 29; selectivity ratio at 96 h [6, 13]: 28
11 | Clc1ccc(C(Cn2ccnc2)OCc2ccsc2Cl)c(Cl)c1 (centres unmarked) [Tioconazole] | 29.9 | 19.5 | 0.064 | 0.63 | – | – | 13.1 | – | 51.1 | 9.26 | – | Activity against P. falciparum (in words) (P. falciparum strain K1): active; selectivity ratio (P. falciparum strain K1): 31; Activity against L. donovani intracellular amastigotes (in words) [5]: active with low selectivity
12 | Cc1cccc(N(C)C(=S)Oc2ccc3ccccc3c2)c1 [Tolnaftate] | – | – | – | – | – | > 97.6 | 50.1 | > 23 | – | 4.33 | 20 | IC50 ([1]; read-out: T. b. rhod. IC50): 69.3 µM; IC50 (in vitro; Cytotox. L6 IC50): 84.6 µM; IC50 (P. falciparum strain K1; K1, read-out: P. falc. IC50): 19 µM; IC50 at 96 h [4, 12]: > 97.6 µM
13 | Cc1c(C)c2c(c(C)c1O)CCC(C)(COc1ccc(CC3SC(=O)NC3=O)cc1)O2 (centres unmarked) [Troglitazone] | – | – | – | – | – | > 68 | > 67.9 | – | – | 4.26 | 32.6 | IC50 ([1]; read-out: T. b. rhod. IC50): 59.3 µM; IC50 (in vitro; Cytotox. L6 IC50): 80.6 µM; IC50 (P. falciparum strain K1; K1, read-out: P. falc. IC50): 7.27 µM; IC50 at 96 h [4, 12]: > 67.9 µM; selectivity ratio at 96 h [6, 13]: > 16
14 | C[C@@H](c1ncncc1F)[C@](O)(Cn1cncn1)c1ccc(F)cc1F [Voriconazole] | > 286 | 195 | 11.2 | > 143 | – | > 85.9 | > 85.9 | – | – | > 286 | – | –
15 | Cc1cn([C@H]2C[C@H](N=[N+]=[N-])[C@@H](CO)O2)c(=O)[nH]c1=O [Zidovudine] | 140 | 207 | 156 | 175 | – | > 112 | > 112 | – | – | > 374 | – | –
